Measurements published in the supplement of paper PMC9938120.

Key:
Assay in all cases: drug sensitivity score (DSS3, normalised partial AUC of % inhibition dose-response) (DSS (score)); higher = more sensitive (stronger inhibition of viability); extreme values may be limits of the assay
Settings in all cases: 72 h; library: FO5A; assay format: 2D, 384-well, CellTiter-Glo
FMOC02_2 = system: FMOC02_2 (patient-derived low-grade serous ovarian cancer cells)
In short: (§1)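 Early-passage (under 10) patient-derived ovarian cancer cells were dispensed onto 384-well flat clear-bottom plates pre-plated with compounds at five concentrations spanning a 10,000-fold range, then incubated 72 h at 37 °C, 5% CO2. Viability was read with CellTiter-Glo, and the data were processed in Breeze. The drug sensitivity score is a partial area under the percent-inhibition dose-response curve divided by the log of the upper asymptote, with higher values meaning greater sensitivity.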

FMOC02_3 = system: FMOC02_3 (patient-derived low-grade serous ovarian cancer cells)
In short: as §1

FMOC03 = system: FMOC03 (patient-derived mucinous ovarian cancer cells)
In short: as §1

FMOC24 = system: FMOC24 (patient-derived high-grade serous ovarian cancer cells)
In short: as §1

FMOC25_2 = system: FMOC25_2 (patient-derived low-grade serous ovarian cancer cells)
In short: as §1

FMOC09 = system: FMOC09 (patient-derived high-grade serous ovarian cancer cells)
In short: as §1

FMOC14 = system: FMOC14 (patient-derived high-grade serous ovarian cancer cells)
In short: as §1

FMOC22 = system: FMOC22 (patient-derived mucinous ovarian cancer cells)
In short: as §1

FMOC06 = system: FMOC06 (patient-derived mucinous ovarian cancer cells)
In short: as §1

Compound | drug sensitivity score (FMOC02_2) | drug sensitivity score (FMOC02_3) | drug sensitivity score (FMOC03) | drug sensitivity score (FMOC24) | drug sensitivity score (FMOC25_2) | drug sensitivity score (FMOC09) | drug sensitivity score (FMOC14) | drug sensitivity score (FMOC22) | drug sensitivity score (FMOC06)
CC(C)(C)c1cc(NC(=O)Nc2ccc(Oc3ccnc4[nH]c(=O)cnc34)cc2F)n(-c2ccccc2)n1 | 0.2 | 7.1 | 5.3 | 1.6 | 17.8 | 3 | 0.1 | 3.8 | 3.6
CN(C)CC#Cc1ccc(OCCCc2sc(N3CCc4cccc(C(=O)Nc5nc6ccccc6s5)c4C3)nc2C(=O)O)c(F)c1 | 27.6 | 34 | 20.7 | 36.8 | 33.4 | 9.7 | 21.3 | 13.5 | 25.5
CN1CCN(C2CCC(n3cc(-c4ccc(Oc5ccccc5)cc4)c4c(N)ncnc43)CC2)CC1 (stereo not given) | 19.8 | 20 | 9.1 | 9.1 | 9.9 | 19.1 | 7.3 | 5.5 | 8.3
CO[C@@H](C)Cn1c(=O)n(C)c2cnc3ccc(-c4cncc(C(C)(C)O)c4)cc3c21 | 15.3 | 17 | 9.2 | 7.6 | 15.7 | 7.4 | 8.3 | 9.1 | 11
COc1ccc2[nH]cc(/C=C3\C(=O)Nc4ccc(NC(=O)CCN5CCCCC5)cc43)c2c1 | 12.7 | 10.8 | 7.6 | 12.7 | 8.6 | 5.4 | 5.1 | 6.1 | 6.4
Cc1c(-c2ccc(N3CCc4cccc(C(=O)Nc5nc6ccccc6s5)c4C3)nc2C(=O)O)cnn1CC12CC3CC(CC(C3)C1)C2 | 14.5 | 26.7 | 12.5 | 23 | 24 | 3.1 | 8.8 | 5.7 | 16.8
Cc1sc2c(c1C)C(c1ccc(Cl)cc1)=N[C@@H](CC(=O)Nc1ccc(OCCOCCOCCOCCNc3cccc4c3C(=O)N(C3CCC(=O)NC3=O)C4=O)cc1)c1nnc(C)n1-2 (stereo not given in full) [ARV-825] | 7.1 | 13 | 4 | 6 | 17.1 | 8.3 | 11.4 | 3.6 | 14.9
C=CCn1c(=O)c2cnc(Nc3ccc(N4CCN(C)CC4)cc3)nc2n1-c1cccc(C(C)(C)O)n1 [AZD1775] | 10.8 | 17.5 | 6.1 | 8.15 | 15.2 | 7.9 | 14.6 | 6.9 | 8.5
Cc1[nH]nc(C(F)(F)F)c1Cc1sc2c(c1C(=O)N1C[C@](C)(O)CO1)c(=O)n(C)c(=O)n2C(C)C [AZD3965] | 0 | 0.8 | 0 | 1.5 | 0 | 0 | 0 | 0 | 0
C[C@@H]1COCCN1c1cc(C2([S@](C)(=N)=O)CC2)nc(-c2cc[nH]c3nccc2-3)n1 [AZD6738] | 7.8 | 11.1 | 5 | 8 | 12.5 | 7.7 | 10.7 | 7.4 | 6.9
CCN(CC)CCNC(=O)c1c(C)[nH]c(/C=C2\C(=O)Nc3ccc(-c4csc(-c5ccccc5)n4)cc32)c1C [Amcasertib] | 1.6 | 0 | 1.2 | 8.9 | 0.1 | 0.3 | 0.1 | 2.7 | 0.5
O=C1CCc2c(Oc3ccc4c(c3)[C@@H]3[C@H](O4)[C@H]3c3nc4cc(C(F)(F)F)ccc4[nH]3)ccnc2N1 [BGB-283] | 7.4 | 6.8 | 4.5 | 0.9 | 5.8 | 4.9 | 1 | 3.7 | 4.8
Cc1sc2c(c1C)C(c1ccc(Cl)cc1)=N[C@@H](CC(=O)Nc1ccc(O)cc1)c1nnc(C)n1-2 [Birabresib] | 13.5 | 18.5 | 5.5 | 7.65 | 8.5 | 3.6 | 1.1 | 6.7 | 5.1
CCN1C(=O)CNc2ncc(-c3ccc(-c4nc[nH]n4)nc3C)nc21 [CC-115] | 14.2 | 9.5 | 8 | 6.2 | 16 | 6.7 | 8.9 | 6.3 | 10.9
CO[C@H]1CC[C@H](N2C(=O)CNc3ncc(-c4ccc(C(C)(C)O)nc4)nc32)CC1 [CC-223] | 8.6 | 9.2 | 4 | 2.4 | 8.6 | 3.5 | 3.5 | 3 | 5.1
Cc1noc2c1-c1ccccc1C(c1ccc(Cl)cc1)=N[C@H]2CC(N)=O [CPI-0610] | 7.8 | 12.5 | 4.3 | 6.4 | 4 | 4.3 | 1.5 | 3.3 | 0.6
C[C@H]1O[C@@H](O[C@H]2[C@@H](O)C[C@H](O[C@H]3[C@@H](O)C[C@H](O[C@H]4CC[C@@]5(C)[C@H](CC[C@@H]6[C@@H]5C[C@@H](O)[C@]5(C)[C@@H](C7=CC(=O)OC7)CC[C@]65O)C4)O[C@@H]3C)O[C@@H]2C)C[C@H](O)[C@@H]1O [Digoxin] | 11.1 | 14.4 | 9.6 | 17.1 | 18.3 | 14.3 | 10.3 | 9.7 | 10.7
Cc1ccc(NS(=O)(=O)c2cccc(C#N)c2)c2[nH]cc(C#N)c12 [E7820] | 4.4 | 10.1 | 3.9 | 16.3 | 7.4 | 12.4 | 4.5 | 10.5 | 1.5

Compound | drug sensitivity score (FMOC02_2) | drug sensitivity score (FMOC02_3) | drug sensitivity score (FMOC03) | drug sensitivity score (FMOC24) | drug sensitivity score (FMOC25_2) | drug sensitivity score (FMOC09) | drug sensitivity score (FMOC14) | drug sensitivity score (FMOC22) | drug sensitivity score (FMOC06)
NC(=O)/C(=C/n1cnc(-c2cc(C(F)(F)F)cc(C(F)(F)F)c2)n1)c1cncnc1 [Eltanexor] | 16.2 | 24.5 | 12.5 | 23.7 | 23 | 13.3 | 12.4 | 16.5 | 23
COc1cccc2c1C(=O)c1c(O)c3c(c(O)c1C2=O)C[C@@](O)(C(=O)CO)C[C@@H]3O[C@H]1C[C@H](N)[C@@H](O)[C@H](C)O1 [Epirubicin] | 3.9 | 7 | 4.3 | 4.8 | 8.2 | 5.2 | 3.8 | 5.7 | 4.2
CCOc1ccccc1-n1c(C(C)N2CCN(C(=O)COc3ccc(Cl)cc3)CC2)nc2ccccc2c1=O (stereo not given) [Erastin] | 0.3 | 3.9 | 6.1 | 0.1 | 4.7 | 2.2 | 14.6 | 0.2 | 8
C=C1C[C@@H]2CC[C@@]34C[C@H]5O[C@H]6[C@@H](O3)[C@H]3O[C@H](CC[C@@H]3O[C@H]6[C@H]5O4)CC(=O)C[C@@H]3[C@@H](OC)[C@@H](C[C@H](O)CN)O[C@H]3C[C@H]3O[C@@H](CC[C@@H]1O2)C[C@@H](C)C3=C [Eribulin] | 14.9 | 19.2 | 18 | 0.6 | 15.1 | 13.1 | 0 | 15.5 | 12.1
CC1(C)OCCn2c1nc1c(N3CCOCC3)nc(-c3cnc(N)nc3)nc12 [GDC-0084] | 18.1 | 18.5 | 10.5 | 7.5 | 16.2 | 9.6 | 9.2 | 7.4 | 10.9
CC(C)C[C@H](NC(=O)CNC(=O)c1cc(Cl)ccc1Cl)B(O)O [Ixazomib] | 14.3 | 6 | 15.1 | 16.8 | 14.5 | 6.8 | 15.3 | 16.6 | 12.1
CCNCCS(=O)(=O)NC[C@@]1(c2ccccc2)SC(NC(=O)C(C)(C)C)=NN1C(=O)C(C)(C)C [Litronesib] | 4.9 | 11.6 | 7.9 | 0 | 13.5 | 6.8 | 0 | 9.2 | 0.7
CCCCCCCCCCCCCCCCOP(=O)([O-])OCC[N+](C)(C)C [Miltefosine] | 5.5 | 6.9 | 5.6 | 9.8 | 5.1 | 8.4 | 8.7 | 10 | 9.1
CCS(=O)(=O)Nc1ccc(Oc2ccc(F)cc2F)c(-c2cn(C)c(=O)c3[nH]ccc23)c1 [Mivebresib] | 20.3 | 30.3 | 13.9 | 17.6 | 16.4 | 10.9 | 11.7 | 11.7 | 16.6
CCNC(=O)C[C@@H]1N=C(c2ccc(Cl)cc2)c2cc(OC)ccc2-n2c(C)nnc21 [Molibresib] | 6.9 | 10.2 | 3.4 | 5 | 5.6 | 2.1 | 1.7 | 3.1 | 3.6
COc1cc2c(cc1OC(C)C)[C@H](c1ccc(Cl)cc1)N(c1ccc(N(C)C[C@H]3CC[C@H](N4CCN(C)C(=O)C4)CC3)cc1)C(=O)C2 [NVP-CGM097] | 12.2 | 18 | 5.9 | 8.6 | 13 | 5.9 | 6.3 | 6.9 | 5.5
CN[C@@H](C)C(=O)N[C@H](C(=O)N1CCC[C@H]1c1nc(C(=O)c2ccc(F)cc2)cs1)C1CCCCC1 [NVP-LCL161] | 1.7 | 1.9 | 3.9 | 32.1 | 9.8 | 0 | 7.1 | 0.6 | 10.9
Cn1c(Nc2ccc(C(F)(F)F)cc2)nc2cc(Oc3ccnc(-c4ncc(C(F)(F)F)[nH]4)c3)ccc21 [NVP-RAF265] | 8 | 12.7 | 2 | 2 | 6.6 | 0 | 1.6 | 1.6 | 0.8
CC(=O)c1cc2c(o1)C(=O)c1ccccc1C2=O [Napabucasin] | 18.3 | 17.9 | 18.2 | 17.5 | 15 | 19.2 | 18.2 | 18.5 | 14.7
CC(=O)c1cnc2ccc(-c3cc(Cl)c(O)c(Cl)c3)nc2c1N[C@H]1CC[C@H](CN(C)C)CC1 [OTS167] | 13.5 | 12.6 | 7.7 | 12.8 | 15.1 | 13.1 | 13 | 7.2 | 6.3
CC1(C)CC[C@]2(NC(=O)C(C)(F)F)CC[C@]3(C)[C@H](C(=O)C=C4[C@@]5(C)C=C(C#N)C(=O)C(C)(C)[C@@H]5CC[C@]43C)[C@@H]2C1 [Omaveloxolone] | 9.3 | 10 | 18.7 | 9.7 | 13.9 | 14 | 11.6 | 15.9 | 15.8
Cn1nccc1Nc1nccc(-c2ccn([C@H](CO)c3ccc(Cl)c(F)c3)c(=O)c2)n1 [Ravoxertinib] | 7.1 | 8.3 | 4.6 | 5.5 | 6.3 | 1.9 | 0 | 3.9 | 8.7
